No end group written: not given here.
Legend:
Format in all cases: cell-based
[1] = tested on: normal human keratinocytes; assay: Ultrastructural study (transmission electron microscopy) of lamellar bodies in human keratinocytes; conditions: 0.5 ppm peptide
Protocol: The goal of this study is to study in an ultrastructural manner, in transmission electron microscopy, keratinocytes treated by peptide SEQ ID No. 5 at 0.5 ppm.
Normal human keratinocytes in culture are treated with a 1% stock solution at 50 ppm of peptide SEQ ID No. 5 for 48 hours (the medium in the presence of the active ingredient is changed every 24 hours). The cells are washed in PBS, and then are fixed by Karnosky hypertonic fixation (4% paraformaldehyde, 5% glutaraldehyde in a 0.08M phosphate buffer) 1 hour at ambient temperature and then 24 hours at 4° C. The cells are detached from the support by scraping and centrifuged 5 minutes at 1000 rpm. The supernatant is eliminated and a 1M sodium cacodylate buffer is deposited on the residue. The cells are mixed with 2% agar and then postfixed by osmium tetraoxide for 1 hour. The specimens are then dehydrated by successive passages in a series of alcohol (from 50 to 100%). The cells are then coated in a resin. The polymerization is carried out for approximately 12 hours at 60° C. Semi-thin sections of 0.5 μm are made with an ultramicrotome. The sections are deposited on a heat bonded slide and then colored with toluidine blue. The slides are then dehydrated again and mounted in a suitable medium. After having chosen the optimal study zone, the block is recut to the desired size and ultrathin sections are then made, only sections with a silver-grey color and a suitable size are mounted on the electron microscopy grid labeled with both uranyl acetate and lead citrate, and are examined by transmission electron microscope at 60 or 80 KV.

[2] = tested on: normal human keratinocytes; assay: Differentiation study of human keratinocytes (pankeratin immunofluorescence); conditions: 0.5 ppm peptide, 48 hours, epifluorescence
Protocol: The goal of this study is to determine the influence of peptide SEQ ID No. 5 on epidermal differentiation.
Normal human keratinocytes in culture are treated with a 1% stock solution at 50 ppm of peptide SEQ ID No. 4 for 48 hours (the medium in the presence of the active ingredient is changed every 24 hours). The cells are then washed and fixed with cold methanol for 4 minutes at 4° C.

HMG-CoA reductase [3] = assay: Expression of HMG-CoA reductase in skin biopsies (immunolabelling); conditions: 0.5 ppm peptide applied topically, human skin samples in culture, 24 hours or 48 hours
Protocol: The goal of this study is to determine the influence of peptide SEQ ID No. 5 on the expression of HMG-CoA reductase.
Samples of human skin are placed in culture at the air/liquid interface. A 1% stock solution at 50 ppm of peptide SEQ ID No. 5 is applied topically and then the samples are incubated for 24 hours or 48 hours.
These skin samples are then fixed with formaldehyde and then enclosed in paraffin. Sections of 2 to 3 μm are then made Immunolabelling is carried out after unmasking the specific sites by microwave treatment and then incubation in trypsin Immunolabelling is carried out by using a polyclonal rabbit antibody specific for HMG-CoA reductase (Millipore, Upstate), and then a secondary antibody, coupled with a fluorescent dye. The skin sections are then examined by epifluorescence microscope (Nikon Eclipse E600 microscope).

[4] = tested on: normal human dermal fibroblasts; assay: Ultrastructural study of caveolae in human fibroblasts; conditions: 0.5 ppm peptide, 48 hours
Protocol: The goal of this study is to study at the ultrastructural level the caveolae in human dermal fibroblasts.
Normal human dermal fibroblasts in culture are treated with a 1% stock solution at 50 ppm of peptide SEQ ID No. 4 for 48 hours (the medium in the presence of the active ingredient is changed every 24 hours).

HMG-CoA reductase [5] = assay: Expression of HMG-CoA reductase in normal human keratinocytes (immunofluorescence); conditions: 0.5 ppm peptide, 48 hours
Protocol: The goal of this study is to determine the influence of peptide SEQ ID No. 4 on the expression of HMG-CoA reductase in normal human keratinocytes.
Normal human dermal keratinocytes in culture are treated with a 1% stock solution at 50 ppm of peptide SEQ ID No. 4 for 48 hours (the medium in the presence of the active ingredient is changed every 24 hours). The cells are then washed and fixed in cold methanol for 4 minutes at 4° C. The cells are incubated in the presence of a polyclonal rabbit antibody specific for HMG-CoA reductase (Millipore, Upstate), and then a secondary antibody coupled with a fluorescent dye. The cells are then examined by epifluorescence microscope (Nikon Eclipse E600 microscope).

[6] = 48 hours, transmission electron microscopy

| Substance | Golgi complex development versus control cells [1, 6] | production of lamellar bodies (Odland bodies) [1, 6] | lipid synthesis ([1]; inferred from ultrastructure) | expression of pankeratins [2] | HMG-CoA reductase fluorescence in the upper layers of the epidermis versus untreated control (HMG-CoA reductase [3]) | caveolae versus untreated control cells [4] | HMG-CoA reductase cytoplasmic fluorescence (HMG-CoA reductase [5]) |
| --- | --- | --- | --- | --- | --- | --- | --- |
| Ala-Gly-Glu-Leu-Ser-NH2 (AGELS-NH2) [SEQ ID No. 5] | substantially more developed | excess production of lamellar bodies | increase in lipid synthesis | increases the expression of pankeratins | stronger fluorescence | – | – |
| Ala-Gly-Glu-Leu-Ser (AGELS) [SEQ ID No. 4] | – | – | – | – | – | significant increase in caveolae | more intense cytoplasmic fluorescence |
